Drawing on patent EP4692089A1, “NITROGEN-CONTAINING HETEROCYCLIC COMPOUND AS AAK1 INHIBITOR” (Alicorn Pharmaceutical Co., Ltd., priority 2023, dated 2024), this text covers EC50 for one molecule.

Structures are written as SMILES.

The assay concerns the target T1, AAK1 (30-330) protein (Homo sapiens, UniProt Q2M2I8).
T1 construct: (His)6x (N); TEV protease cleavage site (N); made in house; host or cells: Escherichia coli BL21(DE3)
The experiment in a line: CETSA test of binding ability to AAK1 protein (Western blot). How it is done: Experimental objective: To detect the binding ability of compounds to AAK1 protein by means of a CETSA experiment.
Background principle: The CETSA experiment is a molecular detection means for measuring the affinity between drugs and target proteins. […] When a candidate drug is co-incubated with a target protein, if the candidate drug is an inhibitor of AAK1, it can bind to AAK1. […] On the contrary, the stability of the AAK1 protein after heating will be poorer, and the amount of the detected protein will be lower. In this way, the binding ability of the drug to the target protein can be evaluated, which is used for the screening of AAK1 protein inhibitors.
Expression of AAK1 (30-330) protein: The AAK1 sequence (residues 30-330) was cloned into the pET24N vector with an N-terminal (His)6x tag and a tobacco etch virus (TEV) protease cleavage site. The constructed vector was transformed into Escherichia coli BL21(DE3). When the bacteria were cultured with shaking to reach an OD value of 0.6, 1 mM IPTG was added. […] The bacterial cells were collected and subjected to ultrasonic disruption. The supernatant was obtained by centrifugation, and the protein was purified using Ni-NTA. After dialysis, the concentration and purity of the protein were determined.
CETSA sample preparation: Samples were incubated with candidate drugs, control drugs, and control reagents separately for 30 minutes. Each group of samples was heated at approximately 10 pre-set temperature points. After being returned to room temperature, the samples were centrifuged at 20000 g, and the supernatants were collected. Protein samples were denatured by heating at 100°C for 10 minutes with a sample buffer. After the samples were returned to room temperature, Western blot detection was performed on them; the protein loading amount was controlled at 20 µg. […] The same operations were followed, and Western blot detection was conducted. Protein electrophoresis: The voltage for the stacking gel was set at 60 V, and that for the separating gel was set at 120 V. After electrophoresis, electrotransfer was initiated. Electrotransfer conditions were set at 250 mA for 2 h. Blocking with 5% BSA was performed for 1 h. A specific primary antibody was added, and incubation was carried out overnight at 4°C on a shaker. Washing with TBST was conducted 4 times, with 2.5 minutes each time. A secondary antibody was incubated on a shaker at room temperature for 1 h. Washing with TBST was conducted 4 times, with 2.5 minutes each time. ECL was used for development to detect the expression levels of AAK1 protein in different groups and at each temperature point. Western blot bands were processed and converted using Image J and GraphPad software to calculate EC50.

T1 sequence (Q2M2I8 30-330): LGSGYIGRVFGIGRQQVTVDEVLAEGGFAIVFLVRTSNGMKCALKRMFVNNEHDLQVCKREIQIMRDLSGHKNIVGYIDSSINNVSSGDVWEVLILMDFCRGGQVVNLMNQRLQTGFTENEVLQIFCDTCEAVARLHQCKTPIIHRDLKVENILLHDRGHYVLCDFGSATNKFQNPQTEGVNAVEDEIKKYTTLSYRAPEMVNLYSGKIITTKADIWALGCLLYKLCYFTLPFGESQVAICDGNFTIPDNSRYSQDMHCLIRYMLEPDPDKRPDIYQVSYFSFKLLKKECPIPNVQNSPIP

A word on the EC50: it is the concentration needed to bring the measured effect to its halfway point. `CC(C)C[C@](C)(N)COc1ccc(-c2c[nH]c3ncc(F)cc23)nc1C(F)F` [Compound 26, (S)-1-{[2-(difluoromethyl)-6-(5-fluoro-1H-pyrrolo[2,3-b]pyridin-3-yl)pyridin-3-yl]oxy}-2,4-dimethylpentan-2-amine] yielded an EC50 of 10 to 100 nM.
